Experimental data reported in patent US20210300943A1, “OGA INHIBITOR COMPOUNDS” (Janssen Pharmaceutica NV, priority 2018, published 2021).
Where a name gives a salt, the structure may show the parent alone.

Assays:
OGA = biological target: T1, OGA (Homo sapiens, UniProt O60502); test: OGA cellular assay (ICC detection of O-GlcNAcylated proteins in HEK293 cells inducible for P301L mutant human Tau); assay type: cell-based; settings: for Emax: HEK293, HEK293 cells inducible for P301L mutant human Tau; for EC50: read-out: Cellular hOGA, pEC50 (converted)
T1 construct: endogenous in cells; host or cells: HEK293 cells inducible for P301L mutant human Tau (2N4R)
T1 sequence (O60502 1-916): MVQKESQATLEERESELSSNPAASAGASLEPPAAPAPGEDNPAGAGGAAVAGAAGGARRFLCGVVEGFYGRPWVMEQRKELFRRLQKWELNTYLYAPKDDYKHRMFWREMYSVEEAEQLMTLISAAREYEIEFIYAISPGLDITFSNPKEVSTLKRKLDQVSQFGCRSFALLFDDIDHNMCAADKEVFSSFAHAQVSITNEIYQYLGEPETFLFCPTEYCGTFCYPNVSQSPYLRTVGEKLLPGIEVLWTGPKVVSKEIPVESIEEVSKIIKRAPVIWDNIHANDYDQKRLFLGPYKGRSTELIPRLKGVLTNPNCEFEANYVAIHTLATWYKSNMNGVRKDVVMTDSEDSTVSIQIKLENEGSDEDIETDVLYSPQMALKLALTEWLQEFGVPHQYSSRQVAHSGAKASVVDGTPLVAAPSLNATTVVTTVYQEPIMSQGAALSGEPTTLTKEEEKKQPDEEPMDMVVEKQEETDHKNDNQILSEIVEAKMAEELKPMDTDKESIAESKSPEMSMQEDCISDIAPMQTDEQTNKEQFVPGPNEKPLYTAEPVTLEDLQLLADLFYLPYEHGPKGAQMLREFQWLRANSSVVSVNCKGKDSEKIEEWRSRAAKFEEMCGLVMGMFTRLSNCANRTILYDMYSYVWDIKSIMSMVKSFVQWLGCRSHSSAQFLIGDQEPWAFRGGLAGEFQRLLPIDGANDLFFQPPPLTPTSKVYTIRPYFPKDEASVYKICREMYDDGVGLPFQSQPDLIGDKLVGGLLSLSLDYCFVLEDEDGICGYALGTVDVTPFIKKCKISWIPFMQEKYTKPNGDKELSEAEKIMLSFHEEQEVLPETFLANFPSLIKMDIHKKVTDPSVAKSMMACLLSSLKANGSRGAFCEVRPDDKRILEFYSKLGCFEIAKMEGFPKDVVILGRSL
Method in brief: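 HEK293 cells inducible for P301L Tau, in low-glucose assay medium, treated 6 h with compound at 0.2% DMSO. O-GlcNAcylated proteins detected by CTD110.6 immunostaining, imaged at 488 nm with Hoechst nuclear counts for toxicity. IC50 from non-linear regression, 200 uM Thiamet G as maximum.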

[1] = biological target: T2, recombinant human Meningioma Expressed Antigen 5 (MGEA5), also referred to as O-GlcNAcase (OGA) (Homo sapiens, UniProt O60502); test: OGA biochemical assay (inhibition of FM-GlcNAc hydrolysis, fluorescence); settings: for Emax: read-out: Enzymatic Emax (%); for IC50: read-out: Enzymatic hOGA, pIC50 (converted)
T2 construct: Full length OGA enzyme was purchased at OnGene (cat #TP322411); purchased OnGene (so in the source)
T2 sequence (O60502 1-916): T1 sequence (O60502 1-916)
Method in brief: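 Full-length recombinant OGA (2 nM) pre-incubated with compound 60 min at room temperature, then FM-GlcNAc (100 µM final) added in citrate/phosphate buffer pH 7.2 with 0.005% Tween-20. After 6 h at room temperature, stopped with carbonate pH 11.0; fluorescein read at 485/538 nm; IC50 and Hill coefficient from curve fit.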

[2] = maximal effect, Thiamet G 200 uM as maximum
[3] = HEK293 cells inducible for P301L mutant human Tau, 6 hours incubation

Structure (SMILES) | melting point [°C] | Emax (OGA; [2]) [%] | EC50 (OGA; [3]) [nM] | Emax ([1]; maximal effect) [%] | IC50 [1] [nM] | Cellular hOGA; pEC50 (OGA; [3]) | Cellular Emax (%) (OGA; HEK293 cells inducible for P301L mutant human Tau, maximal effect, Thiamet G 200 uM as maximum) | Enzymatic hOGA; pIC50 [1] | Enzymatic Emax (%) ([1]; maximal effect)
Cc1cc(NCC2CCCN(C(C)c3ccc4c(c3)OCC4)C2)cc(C)n1 (stereo not drawn) (as salt: HCl) [Product 22] | 248.4 | – | – | – | – | – | – | – | –
COc1cc(NCC2CCCN(C(C)c3ccc4c(c3)OCC4)C2)cc(C)n1 (stereo not drawn) [Product 30] | – | 81 | 6.31 | 104 | 7.94 | – | – | – | –
Cc1cc(NCC2CCCN(C(C)c3ccc4c(c3)OCC4)C2)cc(C(F)(F)F)n1 (stereo not drawn) [Product 36] | – | 88 | 126 | 101 | – | – | – | – | –
Cc1cc(C[C@H]2CCCN(Cc3ccc4c(n3)OCCO4)C2)cc(C)n1 [Product 43] | – | 60 | 501 | 101 | 63.1 | – | – | – | –
Cc1cc(C[C@H]2CCCN(Cc3ccc4c(c3)OCCN4C)C2)cc(C)n1 [Product 48] | – | 5 | > 1000 | 93 | 501 | – | – | – | –
Cc1cc(NCC2CCCN(C(C)c3cc4c(cc3F)OCCO4)C2)cc(C(F)(F)F)n1 (stereo not drawn) [Product 99] | – | 65 | 25.1 | 105 | 5.25 | – | – | – | –
Cc1cc(C[C@H]2CCCN(C(C)c3cnc4c(c3)OCCO4)C2)cc(C)n1 (stereo partly drawn) [Product 130] | – | 83 | 158 | 101 | 7.94 | – | – | – | –
Cc1cc(C2CCCN(C(C)c3cnc4c(c3)OCCN4)C2)cc(C)n1 (stereo not drawn) [Product 137] | – | 83 | 50.1 | 101 | 20 | – | – | – | –
Cc1cc(OC[C@@H]2CCCN(C(C)c3cnc4c(c3)OCCN4)C2)cc(C)n1 (stereo partly drawn) [Product 145] | – | 35 | > 1000 | 99 | 251 | – | – | – | –
Cc1cc(OC[C@H]2CCCN(C(C)c3cnc4c(c3)OCCN4)C2)cc(C)n1 (stereo partly drawn) [Product 146] | – | 79 | 10 | 99 | 6.31 | – | – | – | –
Cc1cc(OC[C@H]2CCCN(C(C)c3cnc4c(c3)OCCN4)C2)cc(C)n1 (stereo partly drawn) [Product 147] | – | – | – | – | – | 8.0 | 80 | 8.2 | 100
Cc1cc(C2CCCN(C(C)c3nc4c(cc3F)CCO4)C2)cc(C)n1 (stereo not drawn) [Product 148] | – | 78 | 10 | 98 | 15.8 | – | – | – | –
Cc1cc(C2CCCN(C(C)c3nc4c(cc3F)OCCO4)C2)cc(C)n1 (stereo not drawn) [Product 151] | – | 85 | 6.92 | 102 | 6.31 | – | – | – | –
Cc1cc(OC[C@H]2CCCN(C(C)c3nc4c(cc3F)OCCO4)C2)cc(C)n1 (stereo partly drawn) [Product 152] | – | 94 | 3.98 | 102 | 3.98 | – | – | – | –
Cc1cc(OC[C@H]2CCCN([C@@H](C)c3nc4c(cc3F)OCCO4)C2)cc(C)n1 [Product 153] | – | 94 | 2.51 | 102 | 1.58 | – | – | – | –
Cc1cc(OC[C@H]2CCCN([C@H](C)c3nc4c(cc3F)OCCO4)C2)cc(C)n1 [Product 154] | – | 86 | 126 | 101 | 50.1 | – | – | – | –
Cc1cc(CO[C@H]2CCCN(C(C)c3nc4c(cc3F)OCCO4)C2)cc(C)n1 (stereo partly drawn) [Product 168] | – | 69 | 31.6 | 99 | 3.16 | – | – | – | –
Cc1cc(C2CCCN(C(C)c3nc4c(cc3F)OCCO4)C2)cc(C(F)F)n1 (stereo not drawn) [Product 187] | – | 92 | 12.6 | 96 | 7.94 | – | – | – | –
Cc1cc(C2CCCN(C(C)c3nc4c(cc3F)OCCO4)C2)c(F)c(C)n1 (stereo not drawn) [Product 189] | – | 88 | 15.8 | 100 | 7.94 | – | – | – | –
Cc1cc(C2CCCN(C(C)c3cc4c(cc3F)NCCO4)C2)cc(C)n1 (stereo not drawn) [Product 190] | – | 82 | 50.1 | 101 | 10 | – | – | – | –
Cc1cc(OC[C@H]2CCCN(C(C)c3cc4c(cc3F)NCCO4)C2)cc(C)n1 (stereo partly drawn) [Product 191] | – | 81 | 15.8 | 95 | 5.01 | – | – | – | –
Cc1cc(CN[C@H]2CCCN(C(C)c3nc4c(cc3F)OCCO4)C2)cc(C)n1 (stereo partly drawn) [Product 193] | – | 95 | 31.6 | 99 | 3.16 | – | – | – | –
CC(c1nc2c(cc1F)OCCO2)N1CCC[C@@H](CNc2ccc(F)cc2)C1 (stereo partly drawn) [Product 195] | – | 112 | 79.4 | 100 | 15.8 | – | – | – | –
CC(c1nc2c(cc1F)OCCO2)N1CCC[C@H](NCc2ccc(F)cc2)C1 (stereo partly drawn) [Product 196] | – | 70 | 251 | 95 | 39.8 | – | – | – | –
CC(c1ccc2c(n1)OCCO2)N1CCC[C@H](NCc2ccc(F)cc2)C1 (stereo partly drawn) [Product 197] | – | 66 | 631 | 98 | 398 | – | – | – | –

Further lines, results first:

melting point [°C] | Emax (OGA; [2]) [%] | EC50 (OGA; [3]) [nM] | Emax ([1]; maximal effect) [%] | IC50 [1] [nM] | Cellular hOGA; pEC50 (OGA; [3]) | Cellular Emax (%) (OGA; HEK293 cells inducible for P301L mutant human Tau, maximal effect, Thiamet G 200 uM as maximum) | Enzymatic hOGA; pIC50 [1] | Enzymatic Emax (%) ([1]; maximal effect) | Structure (SMILES)
193 | – | – | – | – | – | – | – | – | Cc1cc(NCC2CCCN(C(C)c3ccc4c(n3)OCCO4)C2)cc(C)n1 (stereo not drawn) (as salt: HCl) [Product 21]
– | 97 | 15.8 | 101 | 3.98 | – | – | – | – | COc1cc(C[C@H]2CCCN([C@H](C)c3ccc4c(n3)OCCO4)C2)cc(C)n1 [Product 64]
– | 62 | 501 | 103 | 15.8 | – | – | – | – | Cc1cnc(OC2CCCN(C(C)c3ccc4c(n3)OCCO4)C2)c(C)n1 (stereo not drawn) [Product 133]
– | 60 | 631 | 101 | 3.98 | – | – | – | – | Cc1cc(OC2CCCN(C(C)c3ccc4c(n3)OCCO4)C2)cc(C)n1 (stereo not drawn) [Product 136]
– | 16 | > 1000 | 101 | 126 | – | – | – | – | Cc1cc(OC2CCCN(C(C)c3ccc4c(n3)OCCO4)C2)cc(C(F)(F)F)n1 (stereo not drawn) [Product 138]
– | 83 | 15.8 | 101 | 5.01 | – | – | – | – | Cc1cc(NC[C@H]2CCCN(C(C)c3ccc4c(n3)OCCO4)C2)nc(C)n1 (stereo partly drawn) [Product 157]
– | 78 | 126 | 99 | 39.8 | – | – | – | – | COC1CCN(C(C)c2ccc3c(n2)OCCO3)CC1Cc1cc(C)nc(C)c1 (stereo not drawn) [Product 172]
– | 64 | 631 | 99 | 63.1 | – | – | – | – | Cc1cc(CC2CN(C(C)c3ccc4c(n3)OCCO4)CCC2O)cc(C)n1 (stereo not drawn) [Product 173]
– | 92 | 1.58 | 101 | 3.98 | – | – | – | – | Cc1cc(NC[C@H]2CCCN(C(C)c3nc4c(cc3F)OCCO4)C2)cc(C)n1 (stereo partly drawn) [Product 181]
– | 106 | 1.58 | 99 | 3.98 | – | – | – | – | COc1cc(NC[C@H]2CCCN(C(C)c3nc4c(cc3F)OCCO4)C2)cc(C)n1 (stereo partly drawn) [Product 182]
– | 65 | 50.1 | 100 | 15.8 | – | – | – | – | Cc1cc(C2CCCN(C(C)c3ccc4c(n3)OCCO4)C2)c(F)c(C)n1 (stereo not drawn) [Product 185]
– | 79 | 100 | 102 | 10 | – | – | – | – | Cc1cc(C2CCCN(C(C)c3ccc4c(n3)OCCO4)C2)cc(C(F)F)n1 (stereo not drawn) [Product 188]
– | 91 | 20 | 99 | 6.31 | – | – | – | – | COc1cc(N[C@H]2CCCN(C(C)c3ccc4c(n3)OCCO4)C2)cc(C)n1 (stereo partly drawn) [Product 192]
– | 71 | 251 | 97 | 20 | – | – | – | – | Cc1cc(CN[C@H]2CCCN(C(C)c3ccc4c(n3)OCCO4)C2)cc(C)n1 (stereo partly drawn) [Product 194]
– | 82 | 398 | 94 | 39.8 | – | – | – | – | COc1cc(CN[C@H]2CCCN(C(C)c3ccc4c(n3)OCCO4)C2)cc(C)n1 (stereo partly drawn) [Product 198]
